# Tests used:
# [1] = test system: blood pressure, heart rate, motor activity; assay: Radio-telemetry blood pressure, heart rate, motor activity in normotensive rats, 7 days; assay type: in vivo, normotensive Wistar rats (Crl:COBS(WI)BR)
# Method: Male Crl:COBS(WI)BR rats of 15 weeks old were used. Twenty-four rats were chronically implanted with telemetry implants (TA11PA-C40, Data Sciences, Inc., St. Paul, Minn.) for measurement of arterial blood pressure, heart rate and motor activity. The rat was anesthetized with pentobarbital sodium (60 mg/kg, ip) and its abdomen shaved. Under aseptic conditions, an incision was made on midline. The abdominal aorta was exposed, and cannulated with the catheter of a telemetry transmitter unit. After the transmitter was sutured to the abdominal musculature, the skin was closed. Each rat was allowed to recover for at least 2 weeks before being subjected to drug administration. Three days prior to the start of the experiment, the rats were randomly divided into 4 treatment groups: Vehicle (p.o.), Hydralazine (10 mg/kg, p.o.), nepicastat (30 mg/kg, p.o.), nepicastat (100 mg/kg, p.o.).
# Systolic blood pressure (SBP), diastolic blood pressure (DBP), mean blood pressure (MBP), heart rate (HR), and motor activity (MA) were monitored. After the pre-dose values for these parameters were established, respective groups of rats received a 7 day daily treatment of vehicle, nepicastat or hydralazine.
# Both nepicastat and hydralazine were prepared in water with traces of Tween 80. All doses were given orally to the rat in 10 ml/kg and were expressed as free base equivalents.
# A computerized data collection system was used to continuously collect data on SBP, DBP, MBP, HR, and MA. Data on each rat were collected every 5 min. for 10 sec. These were then averaged hourly and standard errors of the mean (SE) calculated. In this report, only data on MBP, HR and MA were presented. […] Body weights were recorded daily.
# mice = assay: Clinical observations, behavioral tests and rectal temperature after single oral dose; assay type: in vivo; conditions: 30, 100, 300 mg/kg single oral, from 60 min
# Method: A single oral dose of vehicle or Nepicastat formulation was administered by gavage to each mouse using a rodent intubator. The oral route was selected because it is a proposed clinical route of administration. Dose volumes were calculated on the basis of individual body weights recorded before dosing (body weight data are not tabulated in this report). Food and water were withheld from the mice 2.5 to 3.5 hours before dosing, instead of 1.5 hours as specified in the protocol.
# Clinical observations were recorded before dosing. Beginning 60 minutes after dosing, mice in each treatment group were evaluated in groups of up to 3 over an interval of approximately 10 minutes each for clinical observations and protocol-specified behavioral tests.^1 One mouse in the 30-mg/kg group and 1 mouse in the 100-mg/kg group died after dosing and they were removed from the study. Surviving mice were euthanatized and removed from the study at the end of the observation/testing period.
# Mice in groups of 6 males each were administered single oral doses of 0 (vehicle), 30, 100, or 300 mg/kg of nepicastat by gavage. Clinical observations and behavioral tests were initiated 60 minutes after administration of the test formulation. At the end of the observation period, all surviving mice were euthanatized and removed from the study.
# squirrel monkeys = assay: Safety and tolerability of oral dosing in squirrel monkeys; assay type: in vivo, squirrel monkeys (Saimiri sciureus); conditions: 0.5, 2.0, 5.0 mg/kg twice daily for 5 days
# Method: Twenty-seven (27) mature squirrel monkeys (Saimiri sciureus), sixteen females and eleven males were used for this study. The monkeys were maintained on a 13 h/11 h light-dark cycle, with food and water available ad libitum. All procedures used in this study followed NIH guidelines and were approved by the Institutional Animal Care and Use Committee (IACUC). Animals were individually housed and allowed a minimum of one month to acclimate to the colony prior to commencing behavioral studies. A total of six squirrel monkeys, three non-lesioned and three lesioned (received 2 mg/kg MPTP 3 months prior), were used for these studies. To determine the optimal route of administration of drug nepicastat, three different approaches were examined including (i) insertion into treats, (ii) oral syringe, and (ii) oral gavage. […] (ii) Oral syringe injection of drug (0.5, 2, and 5 mg/kg) into the mouth of three non-lesioned and three lesioned monkeys was also not an acceptable route since animals tended to spit out the solution at the highest drug concentration. (iii) Oral gavage administration was carried out in 3 MPTP-Iesioned monkeys at the highest dose (5 mg/kg) and was well accepted.
# A total of six squirrel monkeys, three non-lesioned and three lesioned (received 2 mg/kg MPTP 3 months prior), were used for these studies. […]
# [2] = test system: heart rate, systolic blood pressure; assay: Heart rate and tail cuff systolic blood pressure, 21 days daily treatment; assay type: in vivo, SHR; conditions: 1 and 10 mg/kg p.o. for 21 days
# [3] = test system: cardiovascular parameters; assay: Cardiovascular effects of acute intravenous dosing in normal anesthetized dogs; assay type: in vivo; conditions: 1-10 mg/kg i.v., up to five hours
# [4] = Plasma levels of nepicastat and N-acetyl metabolite in dogs, 2 mg/kg b.i.d.; assay type: in vivo, beagle dogs; conditions: 2 mg/kg bid, sampled 6 h after AM dose
# Method: Male Beagle dogs (Marshall farms, North Rose, N.Y.) weighing between 9-16 kg were used in the study. The animals were allowed water ad libitum and given food once daily at ˜10.00 AM. Animals were randomly assigned to one of the following treatment groups (n=8/group): placebo (empty capsule), or nepicastat at 2 mg/kg b.i.d (4 mg/kg/day). Each animal received 2 doses daily, morning and afternoon (8-10 hours apart). Daily blood samples (10 ml) were drawn 6 h after the AM dose for measurement of plasma levels of nepicastat and catecholamines. The blood was collected in tubes containing heparin and glutathione and centrifuged at −4° C. within 1 h of collection. The plasma was separated and divided into two samples, one for the measurement of plasma catecholamines and the other for analysis of nepicastat.
# Plasma NE, DA and EPI were anaylysed by HPLC using electrochemical detection. Plasma concentration of nepicastat was determined by HPLC using electrochemical detection.
smiles,measurement,setting,value
"Cl.NCc1c[nH]c(=S)n1[C@H]1CCc2c(F)cc(F)cc2C1 [nepicastat, (S)-5-Aminomethyl-1-(5,7-difluoro-1,2,3,4-tetrahydronaphth-2-yl)-2,3-dihydro-2-thioxo-1H-imidazole hydrochloride]",peak decrease in blood pressure (peak hypotensive effect),"[1]; 30 mg/kg/d po, day 2 at hour 13",−10 mmHg
same,peak antihypertensive response on day 1,"[1]; 100 mg/kg po, 22 hr after dosing",−11 mmHg
same,bradycardic response,"[1]; 100 mg/kg, day 2, 3 hours after dosing",−100 b/mm
same,effect on HR,"[1]; nepicastat 30 and 100 mg/kg (day 1), hydralazine 10 mg/kg (throughout)",did not consistently affect HR on day 1
same,clinical or gross behavior changes,mice,No treatment-related clinical or gross behavior changes
same,rectal body temperature vs vehicle-control,mice,Lower body temperatures
same,tolerability,squirrel monkeys,well tolerated at the two lower doses
same,heart rate and systolic blood pressure (tail cuff),[2],"did not alter heart rate, or systolic blood pressure"
same,cardiovascular effects,[3],no cardiovascular effects
same,time of peak plasma levels of the drug,[4],2 days post-dose
